From US20260085253A1, “LILY OF THE VALLEY ODORANT” (Firmenich SA, priority 2022, published 2026)

Columns and labels:
Aedes aegypti = assay: Warm Body assay: repellent efficacy on mosquitoes; type: in vivo; conditions: 100 μL on warm body
Protocol: a) Warm Body Assay: Small-Scale Test Used to Screen the Repellent Efficacy on Mosquitoes at Different Concentrations. […] Anopheles gambiae is also a model organism as it is anthropophilic and transmits malaria. The controlling effect according to the present invention was assessed using an adapted Warm Body assay as defined in Kröber T, Kessler S, FreiJ, Bourquin M, Guerin P M. 2010. J Am Mosq Control Assoc. 26:381-386. In this in-vitro assay the number of mosquito landing on a warm body, simulating an attractive host treated with the tested stimuli, was measured in order to assess the repellence effect. The published protocol has been adapted as the switch from Anopheles gambiae to Aedes aegypti led to a decrease of mosquitoes placed in the tested cage due to the size difference (i.e. 30 mosquitoes instead of 50) and to an increase of lighting since Ae. aegypti is a diurnal mosquitoes (i.e. 150 lux instead of 4 lux). On the sandblasted glass Petri dish covering the warm body (28.3 cm^2), 100 μL of the compounds diluted at 5-8 concentrations in ethanol was applied. The number of mosquito landing on the warm body was counted for each stimulus and pure ethanol (solvent) as control. The stimuli tested were stim A (3-(4-isopropyl-2-methylphenyl)propanal at 96%) and stim B (a composition of matter comprising 3-(4-isopropyl-2-methylphenyl)propanal, 3-(2-isopropyl-4-methylphenyl)propanal and 3-(2-methyl-5-propan-2-ylphenyl)propanal at 88%, 5% and 2%, respectively) diluted in ethanol. Five to eight concentrations were assessed on each stimulus, missing data points mentioned as n.d. The mean number of mosquito landings with the solvent only (0 mg/mL) is equal to 64.5±10.1 landings in two minutes.

Ixodes ricinus = assay: Warm Plate assay: repellent efficacy on ticks; type: in vivo; conditions: for Percentage of repellence of ticks Ixodes ricinus on the warm plate: n = 12, last stage nymphs
Protocol: b) Warm Plate Assay: Small-Scale Test Used to Screen the Repellent Efficacy on Ticks at Different Concentrations.
Repellent efficacy of the different compounds was assessed against the sheep tick, Ixodes ricinus L that can transmit both bacterial and viral pathogens. I. ricinus is one of the recommended model organisms mentioned by the Guidance on the European […] [Vol IL, Efficacy—Assessment & Evaluation (Parts B+C), v6.0, Août 2023]. Observations of repellent efficacy were made on last stage nymphs.
The repellent efficacy was assessed using the protocol of the in-vitro Warm Plate Assay as defined in Kröber T, Bourquin M, Guerin P M. 2013. Pestic. Biochem. Phys. 107(2):160-168.
Ticks had the choice of crossing a zone with 3-(4-isopropyl-2-methylphenyl)propanal (96%) applied or to stay on their refuge without any compound applied. To motivate ticks' movement, the warm plate was heated at 33° C. (to mimic vertebrate skin temperature) and hold in a favourable environment (23° C., 85% RH).
The stimulus tested was stim A (3-(4-isopropyl-2-methylphenyl)propanal at 96%) diluted in ethanol. Twelve different ticks were tested for each of the four concentrations.

For `Cc1cc(C(C)C)ccc1CCC=O` [Stim A, 3-(4-isopropyl-2-methylphenyl)propanal], the “Percentage of repellence of mosquitoes Aedes aegypti landing on the warm body” value (shortened to “Percentage of repellence … on the warm body”) (Aedes aegypti; 0.0032 mg/mL in ethanol) was 20%, the “Percentage of repellence … on the warm body” value (Aedes aegypti; 0.016 mg/mL in ethanol) was 41% and the “Percentage of repellence … on the warm body” value (Aedes aegypti; 0.08 mg/mL in ethanol) was 40%. The “Percentage of repellence … on the warm body” value (Aedes aegypti; 0.4 mg/mL in ethanol) was 63%, the “Percentage of repellence … on the warm body” value (Aedes aegypti; 2 mg/mL in ethanol) was 71% and the “Percentage of repellence … on the warm body” value (Aedes aegypti; 10 mg/mL in ethanol) was 90%. For the same compound, the “Percentage of repellence of ticks Ixodes ricinus on the warm plate” value (“Percentage of repellence … on the warm plate” below) (Ixodes ricinus; 0.4 mg/mL in ethanol) was 25.0%, the “Percentage of repellence … on the warm plate” value (Ixodes ricinus; 2 mg/mL in ethanol) was 100.0% and the “Percentage of repellence … on the warm plate” value (Ixodes ricinus; 10 mg/mL in ethanol) was 100.0%. For the same compound, the “repellence of ticks Ixodes ricinus on the warm plate (in words)” value (Ixodes ricinus; as soon as 0.02% applied on the warm plate) was “All ticks were repelled”.
